Test results as given in patent US20240309003A1, “HETEROCYCLIC COMPOUNDS AS TRIGGERING RECEPTOR EXPRESSED ON MYELOID CELLS 2 AGONISTS AND METHODS OF USE” (Vigil Neuroscience, Inc., priority 2021, published 2024).

Each compound was assayed against T1, human TREM2 (Homo sapiens, UniProt Q9NZC2) (assay: TREM2 agonist potency by cellular phosphorylation of Syk (AlphaLisa) in HEK293T-hTREM2 cells). Details: HEK293 cells expressing human TREM2 and DAP12, Table D.
T1 construct: expressed in transfected cells; host or cells: HEK293T
Type: cell-based
In short: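 Agonist EC50 from a variable-slope four-parameter fit of % activation, based on AlphaLisa phospho-Syk levels in lysates. Cells: HEK293T-hTREM2 (with DAP12), treated 45 min at room temperature with compound in assay buffer.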

T1 sequence (Q9NZC2 19-230): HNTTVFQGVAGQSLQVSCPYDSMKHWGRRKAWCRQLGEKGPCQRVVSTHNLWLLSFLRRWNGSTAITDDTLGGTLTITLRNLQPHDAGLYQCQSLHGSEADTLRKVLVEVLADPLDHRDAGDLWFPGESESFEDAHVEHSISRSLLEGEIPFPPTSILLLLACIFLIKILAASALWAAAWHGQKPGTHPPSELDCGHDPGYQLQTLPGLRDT
T1 sequence (O43914 22-113 partner): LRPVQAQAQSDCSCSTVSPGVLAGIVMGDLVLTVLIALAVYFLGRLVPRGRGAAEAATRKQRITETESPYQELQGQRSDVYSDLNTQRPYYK

EC50 [nM]	Structure (SMILES)
500 to 3000	Cc1cc([C@@H]2C[C@H](c3cc4nc(C)c(C)cc4c(-c4ccc(Cl)cc4F)n3)CCO2)ccn1 [Example 225, 5-(4-chloro-2-fluorophenyl)-2,3-dimethyl-7-((2S,4R)-2-(2-methylpyridin-4-yl)tetrahydro-2H-pyran-4-yl)-1,6-naphthyridine]
500 to 3000	Cc1cc([C@@H]2C[C@H](c3cc4nc(C)c(C)cc4c(-c4ccc(F)cc4F)n3)CCO2)ccn1 [Example 226, 5-(2,4-difluorophenyl)-2,3-dimethyl-7-((2S,4R)-2-(2-methylpyridin-4-yl)tetrahydro-2H-pyran-4-yl)-1,6-naphthyridine]
500 to 3000	Cc1nc2cc([C@@H]3CCO[C@H](c4cnn(C5CC5)c4)C3)cc(-c3ccc(Cl)cc3F)c2nc1C [Example 227, 5-(4-chloro-2-fluorophenyl)-7-((2S,4R)-2-(1-cyclopropyl-1H-pyrazol-4-yl)tetrahydro-2H-pyran-4-yl)-2,3-dimethylquinoxaline]
50 to 500	Cc1nc2cc([C@H]3CCO[C@@H](c4cnn(C5CC5)c4)C3)cc(-c3ccc(Cl)cc3F)c2nc1C [Example 228, 5-(4-chloro-2-fluorophenyl)-7-((2R,4S)-2-(1-cyclopropyl-1H-pyrazol-4-yl)tetrahydro-2H-pyran-4-yl)-2,3-dimethylquinoxaline]
50 to 500	Cc1nc2cc([C@H]3CCO[C@@H](c4cnn(C5CC5)c4)C3)cc(-c3ccc(F)cc3Cl)c2nc1C [Example 229, 5-(2-chloro-4-fluorophenyl)-7-((2R,4S)-2-(1-cyclopropyl-1H-pyrazol-4-yl)tetrahydro-2H-pyran-4-yl)-2,3-dimethylquinoxaline]
3000 to 100000	Cc1nc2cc([C@@H]3CCO[C@@H](c4cnn(C5CC5)c4)C3)cc(-c3ccc(Cl)cc3F)c2nc1C [Example 230, 5-(4-chloro-2-fluorophenyl)-7-((2R,4R)-2-(1-cyclopropyl-1H-pyrazol-4-yl)tetrahydro-2H-pyran-4-yl)-2,3-dimethylquinoxaline]
50 to 500	Cc1ccc2c(-c3ccc(F)cc3F)cc([C@H]3CCO[C@@H](c4cnn(C5CC5)c4)C3)nc2n1 [Example 231]
< 50	Cc1cc2c(-c3ccc(F)cc3F)cc([C@H]3CCO[C@@H](c4cnn(C5CC5)c4)C3)nc2nc1C [Example 232]
< 50	Cc1cc2c(-c3ccc(Cl)cc3F)cc([C@H]3CCO[C@@H](c4cnn(C5CC5)c4)C3)nc2nc1C [Example 233, 5-(4-chloro-2-fluoro-phenyl)-7-[(2R,4S)-2-(1-cyclopropylpyrazol-4-yl)tetrahydropyran-4-yl]-2,3-dimethyl-1,8-naphthyridine]
< 50	Cc1nc2nc(-c3ccc(Cl)cc3F)cc(C3CCO[C@@H](c4cnn(C5CC5)c4)C3)c2nc1C (stereo partly drawn) [Example 235, 6-(4-chloro-2-fluorophenyl)-8-((2R)-2-(1-cyclopropyl-1H-pyrazol-4-yl)tetrahydro-2H-pyran-4-yl)-2,3-dimethylpyrido[2,3-b]pyrazine]
50 to 500	Cc1nc2nc(-c3ccc(Cl)cc3F)cc([C@@H]3CCO[C@@H](c4cnn(C5CC5)c4)C3)c2nc1C [Example 236, 6-(4-chloro-2-fluorophenyl)-8-((2R,4R)-2-(1-cyclopropyl-1H-pyrazol-4-yl)tetrahydro-2H-pyran-4-yl)-2,3-dimethylpyrido[2,3-b]pyrazine]
< 50	Cc1nc2nc(-c3ccc(Cl)cc3F)cc([C@H]3CCO[C@@H](c4cnn(C5CC5)c4)C3)c2nc1C [Example 237, 6-(4-chloro-2-fluorophenyl)-8-((2R,4S)-2-(1-cyclopropyl-1H-pyrazol-4-yl)tetrahydro-2H-pyran-4-yl)-2,3-dimethylpyrido[2,3-b]pyrazine]
50 to 500	Fc1ccc(-c2nc([C@H]3CCO[C@@H](c4cnn(C5CC5)c4)C3)cc3nc4c(nc23)COC4)c(F)c1 [Example 238, 7-((2R,4S)-2-(1-cyclopropyl-1H-pyrazol-4-yl)tetrahydro-2H-pyran-4-yl)-5-(2,4-difluorophenyl)-1,3-dihydrofuro[3,4-b]pyrido[3,4-e]pyrazine]
